The text below walks through data of ChEMBL document CHEMBL1201862, “PubChem BioAssay data set” (2004).

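96-well plates; 48 h exposure; 5 concentrations. Endpoints by linear interpolation between flanking doses. Not reached: highest tested concentration assigned. At the GI50, growth is halved.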 Active and inactive are the calls of the source. Cut-off read from the data, not from the text of the source: active = GI50 up to about 1.1 µM and inactive = higher.

Some test systems named below: A549; M19-MEL; COLO 205; HCT-15; DLD-1; NCI-H522; SNB-78; SF-539; NCI-H226; DMS-273; SF-268; HL-60; IGROV-1; SK-MEL-28; RXF 393; EKVX; MCF7; SK-OV-3; SW-620; HOP-92.
Assay in all cases: NCI anticancer screen, dose series, 48 h

Consider `CC(=O)CC[N+](C)(C)C`, for which the GI50 in the test on A549 is 83.4 µM (inactive); in the test on M19-MEL, 23.3 µM (inactive); with COLO 205, 9.04 µM (inactive); in the test on HCT-15 it was 22.7 µM; with DLD-1, 10.1 µM (inactive); in the test on NCI-H522 it was 0.929 µM (active). The GI50 is 12.5 µM (inactive) in the test on SNB-78; 62.8 µM (inactive) with SF-539; 53 µM (inactive) in the test on NCI-H226; 21 µM (inactive) in the test on DMS-273; 44.3 µM (inactive) in the test with SF-268; 4.42 µM (inactive) in the test on HL-60. Moreover, the GI50 is 37.3 µM (inactive) in the test with IGROV-1; 28.5 µM (inactive) in the test on SK-MEL-28; 12.9 µM (inactive) with RXF 393; 17.7 µM (inactive) with EKVX; 30.3 µM (inactive) in the test on MCF7; 26.7 µM (inactive) in the test with SK-OV-3. Also, the GI50 with SW-620 is 4.06 µM (inactive); in the test with HOP-92, 10.7 µM (inactive).
On to `COC(=O)C1=CC(O)CCC1c1ccc(OC)cc1` (stereo not drawn), for which the GI50 in the test on A549 was > 100 µM (inactive); in the test on M19-MEL, > 100 µM (inactive); with COLO 205, > 100 µM (inactive); with HCT-15, over 100 µM; in the test with DLD-1, > 100 µM (inactive); in the test with NCI-H522, > 100 µM (inactive). Besides, the GI50 in the test with SNB-78, with SF-539, in the test on NCI-H226, in the test on DMS-273, in the test on SF-268 and in the test with HL-60 was > 100 µM (inactive) each time. Further, the GI50 with IGROV-1, in the test with SK-MEL-28, in the test on RXF 393, in the test with EKVX, with SK-OV-3 and in the test on SW-620 was > 100 µM (inactive) throughout. For the same molecule, in the test with HOP-92, the GI50 is > 100 µM (inactive).
Consider `COc1ccc2nc(-c3ccc(O)cc3)cc(O)c2c1`, for which the GI50 in the test on A549 is 3.7 µM (inactive); with M19-MEL, 0.465 µM (active); in the test with COLO 205 it was 1.28 µM (inactive); in the test on HCT-15, 1.36 µM; with DLD-1 it was 1.35 µM (inactive); with NCI-H522, 0.579 µM (active). The GI50 in the test on SNB-78 was 0.841 µM (active); in the test with SF-539 it was 0.826 µM (active); with NCI-H226, 0.959 µM (active); with DMS-273, 0.206 µM (active); with SF-268, 0.764 µM (active); in the test with HL-60, 0.649 µM (active). For the same molecule, the GI50 in the test on IGROV-1 was 3.87 µM (inactive); in the test with SK-MEL-28 it was 1.15 µM (inactive); in the test with RXF 393, 0.137 µM (active); with EKVX, 7.06 µM (inactive); in the test on MCF7, 3.52 µM (inactive); with SK-OV-3, 1.06 µM (active). Further, the GI50 in the test with SW-620 was 1.07 µM (active); in the test on HOP-92, 0.631 µM (active).
Turning to `N#C/C(=C1\SC(/N=N/c2ccccc2)C(=O)N1c1ccccc1)c1nc2ccccc2[nH]1` (stereo not drawn), the GI50 was > 100 µM (inactive) with A549; > 100 µM (inactive) in the test on M19-MEL; > 100 µM (inactive) in the test on COLO 205; over 100 µM in the test on HCT-15; > 100 µM (inactive) in the test with DLD-1; > 100 µM (inactive) in the test with NCI-H522. Also, the GI50 with SNB-78 was > 100 µM (inactive); in the test with SF-539, 29.7 µM (inactive); in the test on NCI-H226, 71.1 µM (inactive); with DMS-273 it was 45.7 µM (inactive); with SF-268, > 100 µM (inactive); in the test with HL-60 it was 48.8 µM (inactive). Besides, the GI50 with IGROV-1 was 20.5 µM (inactive); in the test on SK-MEL-28, > 100 µM (inactive); in the test with RXF 393, 28.6 µM (inactive); with EKVX, > 100 µM (inactive); in the test with SK-OV-3, 66.5 µM (inactive); in the test on SW-620 it was > 100 µM (inactive). The GI50 in the test with HOP-92 is 23.5 µM (inactive).
